Measured values reported in patent publication US20100120778A1, “QUINOXALINE-BASED LXR MODULATORS” (Wyeth, priority 2008, published 2010).

How the values were obtained:
[1] = target: T1, human LXRβ (Homo sapiens, UniProt P55055); assay: Ligand-binding test procedure for human LXRβ (3H T0901317 tracer, flash plates); conditions: biotinylated hLXRβ, tracer 3H T0901317, +4° C. over night
T1 construct: biotin (biotinylated); made in house; host or cells: E. coli
T1 sequence (P55055 1-460): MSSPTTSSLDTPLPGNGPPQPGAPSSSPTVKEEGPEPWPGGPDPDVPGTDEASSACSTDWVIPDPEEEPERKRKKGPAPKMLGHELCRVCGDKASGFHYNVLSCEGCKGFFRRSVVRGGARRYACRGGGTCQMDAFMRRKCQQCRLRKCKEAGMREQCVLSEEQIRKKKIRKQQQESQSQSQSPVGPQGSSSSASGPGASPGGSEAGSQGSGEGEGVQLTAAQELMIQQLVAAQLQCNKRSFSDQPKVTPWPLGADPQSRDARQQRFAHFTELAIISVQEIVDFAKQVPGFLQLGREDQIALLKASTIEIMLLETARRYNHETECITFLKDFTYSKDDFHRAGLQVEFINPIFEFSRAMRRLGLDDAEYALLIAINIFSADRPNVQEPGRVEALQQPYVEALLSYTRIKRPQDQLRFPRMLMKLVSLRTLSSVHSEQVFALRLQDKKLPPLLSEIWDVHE
Procedure: I. Ligand-Binding Test Procedure for Human LXRβ.
Receptor source: E. coli extracted from cells expressing biotinylated hLXRβ. Extract was made in a similar buffer as above, but with 50 mM TRIS.
Washed streptavidin and coated flash plates with wash buffer. Diluted receptor extract to give Bmax˜4000 cpm and add to the wells. Wrapped the plates in aluminum foil and stored them at +4° C. overnight.
(§1) Made a dilution series in DMSO of the test ligands. Made a 5 nM solution of the radioactive tracer in buffer. Mixed 250 μl diluted tracer with 5 μl of the test ligand from each concentration of the dilution series. Washed the receptor-coated flash plates. Added 200 μl per well of the ligand/radiolabel mixture to the receptor-coated flash plates. Wrapped the plates in aluminum foil and incubate at +4° C. over night.
Aspirated wells, and washed the flashed plates. Sealed the plate.
Measured the remaining radioactivity in the plate.

[2] = target: T2, human LXRα (Homo sapiens, UniProt Q13133); assay: Ligand-binding test procedure for human LXRα (3H T0901317 tracer, flash plates); conditions: biotinylated hLXRα, tracer 3H T0901317, +4° C. over night
T2 construct: biotin (biotinylated); made in house; host or cells: E. coli
T2 sequence (Q13133 1-447): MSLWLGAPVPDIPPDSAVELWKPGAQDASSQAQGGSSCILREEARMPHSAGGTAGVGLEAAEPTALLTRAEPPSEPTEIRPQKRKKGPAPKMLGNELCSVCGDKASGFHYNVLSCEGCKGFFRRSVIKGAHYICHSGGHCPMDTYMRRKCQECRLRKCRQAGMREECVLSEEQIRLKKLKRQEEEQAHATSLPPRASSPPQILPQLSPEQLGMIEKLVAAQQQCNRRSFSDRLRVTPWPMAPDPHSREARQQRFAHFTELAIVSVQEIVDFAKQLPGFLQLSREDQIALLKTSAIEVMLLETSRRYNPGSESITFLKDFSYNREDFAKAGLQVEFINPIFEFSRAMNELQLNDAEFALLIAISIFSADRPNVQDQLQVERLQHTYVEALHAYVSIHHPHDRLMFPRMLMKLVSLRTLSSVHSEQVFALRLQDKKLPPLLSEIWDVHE
Procedure: II. Ligand-Binding Test Procedure for Human LXRα.
Receptor source: E. coli extract from cells expressing biotinylated hLXRα. Extract was made in a similar buffer as above, but with 50 mM TRIS.
Washed streptavidin and coated flash plates with wash buffer. Diluted receptor extract to give Bmax˜4000 cpm and add to the wells. Wrapped the plates in aluminum foil and stored them at +4° C. over night.
as §1
Aspirated wells, and wash the flashed plates. Sealed the plate. Measured the remaining radioactivity in the plate.

| IC50 [1] [nM] | IC50 [2] [nM] | SMILES |
| --- | --- | --- |
| 127 | 1020 | Cc1nc2c(C(F)(F)F)cccc2nc1-c1cccc(Oc2cccc(S(C)(=O)=O)c2)c1 [Example 2, 3-methyl-2-{3-[3-(methylsulfonyl)phenoxy]phenyl}-5-(trifluoromethyl)quinoxaline] |
| > 1000 |  | Cc1nc2c(C(F)(F)F)cccc2nc1-c1ccc(Oc2cccc(S(C)(=O)=O)c2)cc1F [Example 30, 2-{2-fluoro-4-[3-(methylsulfonyl)phenoxy]phenyl}-3-methyl-5-(trifluoromethyl)quinoxaline] |
| 723 |  | CS(=O)(=O)c1cccc(-c2ccc(-c3nc4cccc(C(F)(F)F)c4nc3N)cc2)c1 [Example 33, 3-[3′-(methylsulfonyl)biphenyl-4-yl]-8-(trifluoromethyl)quinoxalin-2-amine] |
| 353 |  | CCc1nc2cccc(C(F)(F)F)c2nc1-c1ccc(-c2cccc(S(C)(=O)=O)c2)cc1 [Example 34, 2-ethyl-3-[3′-(methylsulfonyl)biphenyl-4-yl]-5-(trifluoromethyl)quinoxaline] |
| 99.5 |  | Cc1nc2c(Cl)ccc(Cl)c2nc1-c1ccc(-c2cccc(S(C)(=O)=O)c2)cc1 [Example 35, 5,8-dichloro-2-methyl-3-[3′-(methylsulfonyl)biphenyl-4-yl]quinoxaline] |
| > 1000 |  | Cc1nc2cccc(C(F)(F)F)c2nc1-c1cc(Oc2ccc(S(=O)(=O)CC#N)cc2)ccc1Cl [Example 38, [(4-{4-chloro-3-[3-methyl-8-(trifluoromethyl)quinoxalin-2-yl]phenoxy}phenyl)sulfonyl]-acetonitrile] |
| > 1000 |  | Cc1nc2cccc(C(F)(F)F)c2nc1-c1cc(Oc2ccc(S(C)(=O)=O)cc2)ccc1Cl [Example 39, 3-{2-chloro-5-[4-(methylsulfonyl)phenoxy]phenyl}-2-methyl-5-(trifluoromethyl)quinoxaline] |
| > 1000 |  | Cc1nc2c(C(F)(F)F)cccc2nc1-c1cc(Oc2cccc(S(C)(=O)=O)c2)ccc1-c1ccccc1 [Example 40, 3-methyl-2-{4-[3-(methylsulfonyl)phenoxy]biphenyl-2-yl}-5-(trifluoromethyl)quinoxaline] |
| > 1000 |  | Cc1nc2c(C(F)(F)F)cccc2nc1-c1cc(Oc2ccc(S(=O)(=O)CC#N)cc2)ccc1Cl [Example 41, [(4-{4-chloro-3-[3-methyl-5-(trifluoromethyl)quinoxalin-2-yl]phenoxy}phenyl)sulfonyl]-acetonitrile] |
| > 1000 |  | Cc1nc2cccc(C(F)(F)F)c2nc1-c1cc(Oc2ccccc2S(C)(=O)=O)ccc1Cl [Example 44, 3-{2-chloro-5-[2-(methylsulfonyl)phenoxy]phenyl}-2-methyl-5-(trifluoromethyl)quinoxaline] |
| 63 |  | Cc1nc2c(C(F)(F)F)cccc2nc1-c1cc(Oc2cccc(S(=O)(=O)CCCN)c2)ccc1Cl [Example 45, 3-[(3-{4-chloro-3-[3-methyl-5-(trifluoromethyl)quinoxalin-2-yl]phenoxy}phenyl)sulfonyl]-propan-1-amine] |
| > 1000 |  | Cc1nc2cccc(C(F)(F)F)c2nc1-c1ccc(-c2cccc(NS(C)(=O)=O)c2)cc1 [Example 47, N-{4′-[3-methyl-8-(trifluoromethyl)quinoxalin-2-yl]biphenyl-3-yl}methanesulfonamide] |
| 1090 |  | CNS(=O)(=O)c1cccc(-c2ccc(-c3nc4c(C(F)(F)F)cccc4nc3C)cc2)c1 [Example 48, N-methyl-4′-[3-methyl-8-(trifluoromethyl)quinoxalin-2-yl]biphenyl-3-sulfonamide] |
| > 1000 |  | Cc1nc2c(C(F)(F)F)cccc2nc1-c1ccc(-c2cccc(NS(C)(=O)=O)c2)cc1 [Example 49, N-{4′-[3-methyl-5-(trifluoromethyl)quinoxalin-2-yl]biphenyl-3-yl}methanesulfonamide] |
| > 1000 |  | Cc1nc2c(C(F)(F)F)cccc2nc1-c1ccc(-c2cccc(C(N)=O)c2)cc1 [Example 50, 4′-[3-methyl-5-(trifluoromethyl)quinoxalin-2-yl]biphenyl-3-carboxamide] |
| > 1000 |  | CC(=O)Nc1cccc(-c2ccc(-c3nc4cccc(C(F)(F)F)c4nc3C)cc2)c1 [Example 51, N-{4′-[3-methyl-5-(trifluoromethyl)quinoxalin-2-yl]biphenyl-3-yl}acetamide] |

| IC50 [1] [nM] | IC50 [2] [nM] | SMILES |
| --- | --- | --- |
| > 1000 |  | CNC(=O)c1cccc(-c2ccc(-c3nc4cccc(C(F)(F)F)c4nc3C)cc2)c1 [Example 52, N-methyl-4′-[3-methyl-5-(trifluoromethyl)quinoxalin-2-yl]biphenyl-3-carboxamide] |
| > 1000 |  | Cc1nc2c(C(F)(F)F)cccc2nc1-c1ccc(-c2ccc(C(=O)N3CCCC3)cc2)cc1 [Example 54, 3-methyl-2-[4′-(pyrrolidin-1-ylcarbonyl)biphenyl-4-yl]-5-(trifluoromethyl)quinoxaline] |
| > 1000 |  | Cc1nc2c(C(F)(F)F)cccc2nc1-c1ccc(-c2ccc(CCC(=O)O)cc2)cc1 [Example 55, 3-{4′-[3-methyl-5-(trifluoromethyl)quinoxalin-2-yl]biphenyl-4-yl}propanoic acid] |
| > 1000 |  | COc1cccc2nc(C)c(-c3ccc(-c4cccc(S(C)(=O)=O)c4)cc3)nc12 [Example 69, 5-methoxy-2-methyl-3-[3′-(methylsulfonyl)biphenyl-4-yl]quinoxaline] |
|  | > 1000 | COc1cccc2nc(-c3ccc(-c4cccc(S(C)(=O)=O)c4)cc3)c(C)nc12 [Example 70, 5-methoxy-3-methyl-2-[3′-(methylsulfonyl)biphenyl-4-yl]quinoxaline] |
|  | > 1000 | Cc1nc2c(C#N)cccc2nc1-c1ccc(-c2cccc(S(C)(=O)=O)c2)cc1 [Example 71, 3-methyl-2-[3′-(methylsulfonyl)biphenyl-4-yl]quinoxaline-5-carbonitrile] |
| 640 |  | CNS(=O)(=O)c1cccc(-c2cccc(Oc3cnc4c(Cl)cccc4n3)c2)c1 [Example 84, 3′-[(5-Chloroquinoxalin-2-yl)oxy]-N-methylbiphenyl-3-sulfonamide] |
| 257 |  | CS(=O)(=O)Nc1cccc(-c2cccc(Oc3cnc4c(Cl)cccc4n3)c2)c1 [Example 85, N-{3′-[(5-Chloroquinoxalin-2-yl)oxy]biphenyl-3-yl}methanesulfonamide] |
| > 1000 |  | CNS(=O)(=O)c1cccc(-c2ccc(Oc3cnc4c(Cl)cccc4n3)cc2)c1 [Example 86, 4′-[(5-Chloroquinoxalin-2-yl)oxy]-N-methylbiphenyl-3-sulfonamide] |
| > 1000 |  | CS(=O)(=O)Nc1cccc(-c2ccc(Oc3cnc4c(Cl)cccc4n3)cc2)c1 [Example 87, N-{4′-[(5-chloroquinoxalin-2-yl)oxy]biphenyl-3-yl}methanesulfonamide] |
| > 1000 |  | CNS(=O)(=O)c1cccc(-c2cccc(Oc3nc4cccc(Cl)c4nc3C)c2)c1 [Example 88, 3′-[(5-chloro-3-methylquinoxalin-2-yl)oxy]-N-methylbiphenyl-3-sulfonamide] |
| > 1000 |  | Cc1nc2c(Cl)cccc2nc1Oc1cccc(-c2cccc(S(N)(=O)=O)c2)c1 [Example 89, 3′-[(5-chloro-3-methylquinoxalin-2-yl)oxy]biphenyl-3-sulfonamide] |
| > 1000 |  | Cc1nc2c(Cl)cccc2nc1Oc1cccc(-c2cccc(NS(C)(=O)=O)c2)c1 [Example 90, N-{3′-[(5-chloro-3-methylquinoxalin-2-yl)oxy]biphenyl-3-yl}methanesulfonamide] |
| 933 |  | CNS(=O)(=O)c1cccc(-c2ccc(Oc3nc4cccc(Cl)c4nc3C)cc2)c1 [Example 91, 4′-[(5-chloro-3-methylquinoxalin-2-yl)oxy]-N-methylbiphenyl-3-sulfonamide] |
| 2470 |  | Cc1nc2c(Cl)cccc2nc1Oc1ccc(-c2cccc(S(N)(=O)=O)c2)cc1 [Example 92, 4′-[(5-chloro-3-methylquinoxalin-2-yl)oxy]biphenyl-3-sulfonamide] |
